{"source": "patent US20040142405A1", "about": "“Method of detecting drug resistance” (priority 2003, published 2004)", "key": {"[1]": {"target": "T1, HIV-1 viral protease (PR) (Human immunodeficiency virus type 1 group M subtype B, UniProt P04585)", "format": "biochemical", "settings": "for interfacial electron transfer resistance Ret after biocatalyzed precipitation of (20) (curve f): translation in the presence of saquinavir 1×10^−4 M, 10 min precipitation, non-inhibited mixture 2500 Ω", "description": "(§1) A conventional three electrode cell, consisting of the modified Au electrode, a glassy carbon auxiliary electrode isolated by a glass frit, and a saturated calomel electrode (SCE) connected to the working volume with a Luggin capillary, was used for the electrochemical measurements. The cell was positioned in a grounded Faradaic cage. Impedance measurements were performed using an electrochemical impedance analyzer (EG&G, model 1025) and potentiostat (EG&G, model 283) connected to a computer (EG&G Software Power Suite 1.03 and 270 for impedance measurements). All electrochemical measurements were performed in 0.1 M phosphate buffer, pH 7.0, as a background electrolyte solution. Faradaic impedance measurements were performed in the presence of 10 mM K3[Fe(CN)6]/K4Fe(CN)6] (1:1) mixture, as a redox probe. Impedance measurements were performed at a bias potential of 0.17 V versus SCE using alternating voltage, 10 mV, in the frequency range of 100 mHz to 10 kHz. The impedance spectra were plotted in the form of complex plane diagrams (Nyquist plots).\nThe electrodes were rinsed with water, dried, and soaked in a 10 mM solution of the DSP-active ester in DMSO for 30 min at room temperature. The functionalized electrodes were rinsed with DMSO and water and incubated in a 100 μg·m]L^−1 solution of protein G, for 90 min in a phosphate buffer saline solution, pH=7.4, at room temperature, to couple covalently protein G lysine residues to the functionalized electrodes. The protein G-functionalized electrodes were then allowed to interact with the Fc fragment of the anti-CA-antibody, 1 μg·mL^−1, 30 min at room temperature, to yield the sensing interfaces.\n(§2) The antibody-functionalized electrode was interacted with varying concentrations of the Gag polyprotein generated in the translation mixture for 60 min. diluted to 1.0 mL in phosphate-buffered saline (PBS) solution, 0.1 M, pH 7.0, at room temperature. After attachment of the respective polyprotein to the sensing interface, the electrode was incubated in the solution of anti-MA or anti-CA (sources were 200-fold diluted) for 30 min at room temperature. After attachment to the respective antibody, the electrode was incubated either in a goat-anti-rabbit-HRP conjugate solution (2.5 μg·mL^−1), for the MA analysis, or in a goat-anti-mouse-HRP conjugate solution (2.5 μg·mL^−1) for the CA analysis, for 30 minutes at room temperature. 4-Chloro-1-naphthol (1) (FIG. 1D) was dissolved initially in ethanol and then the ethanolic stock solution was diluted with 0.1 M phosphate buffer, pH 7.0, to yield the developing solution that included 1×10^−3 M (1) and 2% (v/v) ethanol. The modified electrodes consisting of the HRP-tagged antibody-functionalized electrodes were incubated in the developing solution of (1) for a fixed and controlled time of 10 minutes at room temperature to stimulate the precipitation of (2) (FIG. 1D).\n(§3) After incubation of the respective electrodes in the probe solution, the electrodes were rinsed with 0.1 M phosphate buffer, pH 7.0, and introduced into the electrochemical cell for their analyses by Faradaic impedance spectroscopy. It should be noted that after each step the electrode was rinsed thoroughly with buffer solution, pH 7.0, to eliminate any non-specific adsorbates on the electrode. In the microgravimetric quartz crystal microbalance measurements, the various modification and amplification steps, including the rinsing steps, were performed in the flow cell of the QCM apparatus.\n(§4) All the RNA preparations were translated in vitro using the “Biotin in vitro translation kit” (Roche 1559951) in the absence or presence of Saquinavir (Ro 31-8959). Reactions were performed in 50 μL, according to the manufacturer's instructions, using DEPC-treated water. The PR inhibitor Saquinavir was dissolved in 1M NaCl in the DEPC-treated water, and was added to reaction mixtures before starting the synthesis."}, "[2]": {"target": "T1, HIV-1 viral protease (PR)", "format": "biochemical", "description": "as §2, §3, §4"}, "[3]": {"target": "protease encoded by the wild-type viral RNA (HIV-1 PR) (Human immunodeficiency virus type 1 group M subtype B, UniProt P04585)", "format": "biochemical", "description": "as §1\nThe antibody-functionalized electrode was interacted with varying concentrations of the Gag polyprotein generated in the translation mixture for 60 min. diluted to 1.0 mL in phosphate-buffered saline (PBS) solution, 0.1 M, pH 7.0, at room temperature. […]"}, "[4]": {"target": "T2, G48V mutated PR (Human immunodeficiency virus type 1 group M subtype B, UniProt P12497, G536V)", "T2 construct": "a virus encoded protease (PR) which is one of the individual proteins making up the uncleaved polyprotein; made in house; host or cells: cell-free in vitro translation (Biotin in vitro translation kit, Roche 1559951) of RNA from the media of cultured cells infected with HIV-1 G48V", "assay": "Four-path impedance analysis (FIG. 5) of proteins translated from RNA of the HIV-1 G48V mutant", "format": "biochemical, HIV-1 (NL4-3)", "description": "as §1\nas §2, with “The modified electrodes consisting of the HRP-tagged antibody-functionalized electrodes were incubated in the developing solution of (1) for a fixed and controlled time of 10 minutes at room temperature to stimulate the precipitation of (2) (FIG. 1D).” left out"}, "[5]": {"target": "viral PR (Human immunodeficiency virus type 1 group M subtype B, UniProt P04585)", "format": "biochemical", "settings": "RNA of HIV-1 infected cultured cells, increased concentrations of saquinavir, FIG. 8", "description": "as §2\nAll the RNA preparations were translated in vitro using the “Biotin in vitro translation kit” (Roche 1559951) in the absence or presence of Saquinavir (Ro 31-8959). […]"}, "[6]": {"test_system": "viral PR from patients' plasma HIV RNA", "assay": "Four-path impedance analysis (FIG. 5) of RNA extracted from blood samples of AIDS patients treated with saquinavir", "format": "biochemical", "settings": "for α = Ret^B(1)/Ret^A(1): CA units, anti-CA; for β = Ret^B(2)/Ret^A(2): MA units, anti-MA, β≈1.0 drug resistant, β<1 drug sensitive", "description": "Plasma was obtained from consenting donors following removal of blood cells by centrifugation for 5 minutes at 3,000 rpm. The plasma was 3-fold diluted with PBS, and viral particles were peletted by centrifuging the volume for 45 minutes at 45,000 rpm in a Backman centrifuge (SW 50.1 rotor). The viral pellets were suspended in 1 mL TRIzol reagent (Gibco BRL) containing 5-10 μg of tRNA (Sigma) as carrier and RNA was extracted according to the manufacturer's instructions.\nAll the RNA preparations were translated in vitro using the “Biotin in vitro translation kit” (Roche 1559951) in the absence or presence of Saquinavir (Ro 31-8959). Reactions were performed in 50 μL, according to the manufacturer's instructions, using DEPC-treated water. The PR inhibitor Saquinavir was dissolved in 1M NaCl in the DEPC-treated water, and was added to reaction mixtures before starting the synthesis. The reaction mixtures were incubated for 90 min at 30° C. and the reactions were halted by placing in ice or storage at −75° C. until further use in the electrochemical measurements.\nAn extracted RNA specimen 100 is subdivided into two samples, A 102 and B 104. While sample A is subjected to in vitro translation in the presence of the PI, sample B is translated in the absence of the PI. Each of the translation mixtures is then further divided into two equal sub-samples, sample A into sub-samples A(1) 106 and A(2) 108, and sample B into sub-samples B(1) 110 and B(2) 112. The sub-samples A(1) and B(1) are subjected to the analysis of the total CA units using anti-CA, according to FIG. 1B, route (ii). The sub-samples A(2) and B(2) utilize the anti-MA antibody to assess content of polyprotein in the respective samples, according to FIG. 1A and FIG. 1B, route (i). Note that the ratio of the interfacial electron transfer resistances generated upon the precipitation of the precipitate (20) in sub-samples A(2) and B(2) reflect the content of polyprotein generated under PR inhibition vs. the unprocessed (=unhydrolyzed) polyprotein in the system.\nThe ratio of electron transfer resistances of paths A(1) and B(1) should be independent of the PI, and its value should be ≈1. This ratio provides an internal standard for the effectiveness of translations in the entire set of experiments. Thus, the four-path analysis scheme of the mRNA translation processes eliminates the background signal of unprocessed polyproteins in the absence of the inhibitor. The assay also abrogates the difference in the affinities of anti-CA and anti-MA to the respective antigens. Since the original sample is subdivided into equivalent sub-samples prior to translations, the problem of different RNA contents in analysis paths is cancelled out.\nThe analysis scheme outlined in FIG. 5 was applied to detect drug resistance in AIDS patients, treated with saquinavir. In this process, we expect that the analysis of the CA-units by the anti-CA antibodies will lead to an electron transfer resistance ratio of paths A(1) 106 and B(1) 110 in FIG. 5, that corresponds to α=Ret^B(1)/Ret^A(1)≈1.0 whereas the ratio of electron transfer resistance analyzing the MA-units with the anti-MA antibody of paths B(2) 112 and A(2) 108 in FIG. 5 should reveal the value β=Ret^B(2)/Ret^A(2)≈1.0 for drug resistant patients, and β<1 for drug sensitive patients."}, "[7]": {"test_system": "AIDS patients", "settings": "cited from earlier work"}, "[8]": {"settings": "translation of bacterial RNA in the presence of saquinavir 1×10^−4 M"}}, "note": "Like-named read-outs stand apart in the source and are kept apart here.", "data": [{"smiles": "CC(C)(C)NC(=O)[C@@H]1C[C@@H]2CCCC[C@@H]2CN1C[C@@H](O)[C@H](Cc1ccccc1)NC(=O)[C@H](CC(N)=O)NC(=O)c1ccc2ccccc2n1", "note": "[saquinavir]", "values": [{"measurement": "ΔRet upon precipitation, non-inhibited mixture lower than inhibited translation mixture", "setting": "[1]; identical quantities of mRNA, absence vs presence of Saquinavir", "result": 4, "unit": "fold"}, {"measurement": "increase in interfacial electron transfer resistance ΔRet upon the precipitation of (20)", "setting": "[1]; inhibited translation mixture, non-inhibited mixture ΔRet=500 Ω", "result": "≈ 2000 Ω"}, {"measurement": "interfacial electron transfer resistance Ret after biocatalyzed precipitation of (20) (curve f)", "setting": "[1]", "result": "5000 Ω"}, {"measurement": "interfacial electron transfer resistance Ret after biocatalyzed precipitation of (20) (curve f)", "setting": "[1]; listed as Saquinavir", "result": "ca. 5100 Ω"}, {"measurement": "electron transfer resistance Ret after addition of anti-anti-MA-HRP conjugate (curve e)", "setting": "[1]; [8]", "result": "3000 Ω"}, {"measurement": "interfacial electron-transfer resistance Ret after association of anti-MA-Ab (curve d)", "setting": "[1]; [8]", "result": "2800 Ω"}, {"measurement": "interfacial electron-transfer resistance after binding of the Gag polyprotein to anti-CA-Ab (curve c)", "setting": "[1]; [8]", "result": "2100 Ω"}, {"measurement": "Anti-MA Δf", "setting": "[2]", "result": "−80", "unit": "Hz"}, {"measurement": "Anti-anti MA/HRP Δf", "setting": "[2]", "result": "−140", "unit": "Hz"}, {"measurement": "Precipitation of (2) Δf", "setting": "[2]", "result": "−100", "unit": "Hz"}, {"measurement": "frequency change upon treatment of the surface with the translated proteins", "setting": "[2]", "result": "−50", "unit": "Hz"}, {"measurement": "ratio Ret^B(2)/Ret^A(2)", "setting": "[3]", "result": 0.43}, {"measurement": "electron transfer resistance Ret, path A(2), anti-MA analysis (curve d)", "setting": "[3]; wild type virus, saquinavir 1×10^−4 M, non-inhibited path B(2) Ret=6", "result": 14, "unit": "kω"}, {"measurement": "effect of the inhibitor on the protease activity", "setting": "[4]", "result": "no effect of the inhibitor is observed"}, {"measurement": "interfacial resistance Ret, path A(2) with the inhibitor (curve d)", "setting": "[4]; identical to path B(2) without inhibitor", "result": "≈ 11 kΩ"}, {"measurement": "ratio Ret^B(2)/Ret^A(2)", "setting": "[4]; without vs with inhibitor", "result": 1}, {"measurement": "interfacial electron transfer resistance as the concentration of the inhibitor increases", "setting": "[5]", "result": "enhanced"}, {"measurement": "α = Ret^B(1)/Ret^A(1)", "setting": "[6]; Patient # 1", "result": "1.17 ± 0.03"}, {"measurement": "β = Ret^B(2)/Ret^A(2)", "setting": "[6]; Patient # 1", "result": "0.87 ± 0.04"}, {"measurement": "α = Ret^B(1)/Ret^A(1)", "setting": "[6]; Patient # 2", "result": "1.07 ± 0.03"}, {"measurement": "β = Ret^B(2)/Ret^A(2)", "setting": "[6]; Patient # 2", "result": "1.1 ± 0.04"}, {"measurement": "α = Ret^B(1)/Ret^A(1)", "setting": "[6]; Patient # 3", "result": "1.04 ± 0.03"}, {"measurement": "β = Ret^B(2)/Ret^A(2)", "setting": "[6]; Patient # 3", "result": "0.75 ± 0.04"}, {"measurement": "α = Ret^B(1)/Ret^A(1)", "setting": "[6]; Patient # 4", "result": "1.10 ± 0.03"}, {"measurement": "β = Ret^B(2)/Ret^A(2)", "setting": "[6]; Patient # 4", "result": "0.79 ± 0.04"}, {"measurement": "α = Ret^B(1)/Ret^A(1)", "setting": "[6]; Patient # 5", "result": "1.0 ± 0.03"}, {"measurement": "β = Ret^B(2)/Ret^A(2)", "setting": "[6]; Patient # 5", "result": "1.07 ± 0.04"}, {"measurement": "clinical condition under treatment", "setting": "[7]; all other patients (#1, #3, #4), subjective statements of the physicians", "result": "balanced conditions"}, {"measurement": "clinical response to treatment", "setting": "[7]; patients #2 and #5, subjective statements of the physicians", "result": "did not react to the treatment"}]}]}
